Assays:
HIV-1 LAI = assay: Antiviral activity in quiescent or PHA-P activated PBMCs infected with HIV-1 LAI; assay type: cell-based; conditions: for decrease of viral replication: PBMCs activated by PHA-P
Description: For some experiments, the PBMCs and the PBLs are activated for 48 h with 1 μg/ml of a mitogen, PHA-P (Difco Laboratories). The PBMCs and the PBLs are cultured in medium A (quiescent) or B (activated). The cells are cultured at 37° C. in an atmosphere saturated with moisture under 5% of CO2. The culture supernatants are removed and the culture media are replaced every three or four days. At each renewal of the culture media, the cell viability is evaluated by coloring with trypan blue or by microscopic observation.
The MDMs were infected with the reference isolate with macrophage tropism, HIV-1/Ba-L. The PBMCs and the PBLs were infected with the reference isolate with lymphocyte tropism HIV-1 LAI. The viral stock were formed by amplifying these strains in vitro using umbilical blood mononucleated cells (UBM(s) preactivated with 1 μg/ml of PHA-P and cultured in medium A supplemented by 20 IU/ml of IL-2. In order to remove the soluble factors, such as cytokines, the culture supernatants were ultracentrifuged at 360 000 g for 5 min, and the pellets were resuspended in RPMI 1640. The viral stocks thus formed were subsequently titred using PBMCs activated with PHA-P. The TCID50s (50% Tissue Culture Infectious Dose) were calculated using the Kärber formula.
A million MDMs were infected with 10 000 TCID50s of the HIV-1/Ba-L strain. This amount of virus corresponds to a multiplicity of infection (m.o.i.) equal to 0.01. The excess of virus is removed 24 h after by washing with cells using RPMI 1640. The PBLs and the PBMCs were infected with 10 000 TCID50s of the HIV-1 LAI strain (moi=0.01). The cells were washed at the end of the second day of infection.
(§1) The viral replication is measured by assaying the RT activity in the culture supernatants according to the technique described by F. Rey et al. (Biochem. Biophys. Res. Comm., 1984, 121, 126-133). The radioactivity incorporated during the extension of the complementary strand of a poly-rA synthetic matrix in the presence of an oligo-dT12-18 primer and of a radiolabeled substrate, [^3H-methyl]thymidine-5′-triphosphate ([^3H]TPP), makes it possible to assay the enzymatic activity of RT. 400 μl of supernatant are ultracentrifuged at 360 000 g for 5 min. The RT is released by lysis of the viral pellet in 20 μl of NTE-Triton (100 mM NaCl, 10 mM Tris, 1 mM EDTA, 0.1% Triton X-100). These 20 μl are subsequently incubated with 40 μl of the following reaction mixture: 62.5 mM Tris, pH 7.8; 25 mM KCl; 6.25 mM MgCl2; 1.25 mM dithiothreitol (DTT); 2.5×10^−3 ODU oligo-dT12-18 and poly-rA, 5.55×10^−3 TBq {^3H]TTP. After one hour at 37° C., the enzymatic reaction is halted and the newly synthesized strands are precipitated for 20 min at 4° C. by the addition of 1 ml of sodium pyrophosphate (NaPP), of 50 μl of yeast DNA (0.1 mg/ml in 5% trichluoroacetic acid (TCA)), and of 4 ml of 20% TCA. The mixture is filtered using a cellulose acetate membrane (Millipore) which retains the radiolabeled poly-dT chains. The filter is washed using 20 ml of 5% TCA and the residual water is removed by addition of 25 μl of 70% ethanol. The filter is dried in an oven for 10 minutes at 80° C. and is then introduced into vials containing 8 ml of liquid scintillant. The β radioactivity is quantified by means of a scintillation counter (Packard Bell). The results are expressed in pM of [^3H]-TMP incorporated/h/ml of supernatant or, more simply, in cpm/h/ml.
The PBMCs, quiescent or activated by PHA-P, were infected by the reference strain with lymphocyte tropism HIV-1 LAI. All the culturings were carried out in parallel and the drugs were maintained throughout the culturing.

[1] = target: T1, RT of the HIV-1 LAI isolate (Human immunodeficiency virus type 1 group M subtype B, UniProt P03367); assay: Acellular test of the enzymatic activity of RT; assay type: biochemical; conditions: acellular system
T1 construct: The RT is released by lysis of the viral pellet in 20 μl of NTE-Triton; endogenous in cells; host or cells: Virions pelleted by ultracentrifugation from supernatants of infected cell cultures
Description: as §1
The I-152 molecule is composed of NAC and MEA, which are capable of inhibiting the activity of RT (A. Bergamini et al., J. Clin. Invest., 1994, 93, 2251-2257). For this reason, the inhibiting capacity of I-152 with respect to the RT activity was measured using an acellular test. This test was carried out according to the protocol described above (§ 3.3.3.1.). In the reaction mixture, only the 20 μl of water are replaced by 20 μl of a concentration of I-152 or of the reference compounds. Heparin, known for inhibiting the activity of RT and of the other DNA polymerases, is used as positive control for inhibition.

HIV-1/Ba-L = assay: Antiviral activity in MDM cultures infected with HIV-1/Ba-L (RT activity in culture supernatants); assay type: cell-based; conditions: Human immunodeficiency virus 1, BAL; MDMs infected with 1 000 TCID50 (m.o.i. 0.001); read-out: 50% effective dose (ED)
GSH = assay: Intracellular GSH in MDMs infected with HIV-1/Ba-L; assay type: cell-based, human; conditions: MDMs with GSH deficiency after infection with HIV-1/Ba-L
Description: The intracellular GSH was assayed by means of the assay kit sold by Cayman. This method for assaying glutathione is an adaptation of that described by O. W. Griffith et al. (1980).
The compound I-152 and its derivatives are prepared extemporaneously by being dissolved in dimethyl sulfoxide (DMSO) at the concentration of 100 mM. They are subsequently stored at −20° C. after having been diluted 10 fold in phosphate buffer (PBS).

Which “cytotoxicity (in words)” value (PBMCs) does the source give for CC(=O)N[C@@H](CS)C(=O)NCCSC(C)=O [I-152, N-(N-acetyl-L-cysteinyl)-S-acetylcysteamine] here?
Its value is “not cytotoxic”.

And the inhibition at 125 µM (HIV-1 LAI; Human immunodeficiency virus 1, PBMC, quiescent PBMCs, 125 μM, read-out: inhibition of viral replication)?
Its inhibition at 125 µM is 88%.

What about the inhibition at 250 µM (HIV-1 LAI; Human immunodeficiency virus 1, PBMC, quiescent PBMCs, 250 μM, read-out: inhibition of viral replication) of the same molecule?
The inhibition at 250 µM was 97%.

And the “decrease of viral replication” value (HIV-1 LAI; 125 μM)?
The value was 25%.

What about the “decrease of viral replication” value (HIV-1 LAI; 250 μM) of the same molecule?
The value was 42%.

And the “inhibiting activity with respect to RT (in words)” value [1]?
Its value is “do not exhibit an inhibiting activity”.

What about the EC50 (HIV-1/Ba-L) of the same molecule?
The EC50 was 3000 nM.

What about the “regeneration of intracellular GSH level (in words)” value (GSH) of the same molecule?
The value was “capable of regenerating an abnormally low intracellular level”.

And the “cytotoxicity (in words)” value (PBLs)?
The value was “not cytotoxic”.
